According to US7807701B2, “Dibenzylamine compounds and pharmaceutical use thereof” (Japan Tobacco Inc., priority 2002, dated 2010):

What was measured:
CETP [1] = test: Inhibitory effect exo vivo on CETP activity in total plasma of normal hamster; conditions: single oral dose 3 mg/kg, blood taken 4 hr after administration, average values
Procedure: Potassium bromide (KBr) was added to plasma (40 mL) of healthy subject and the mixture was adjusted to have a specific density d=1.125 g/mL. The mixture was subjected to density gradient centrifugation (227,000×g, 4° C., 17 hr) and a fraction showing a specific density of d>1.125 g/mL (HDL3 fraction) was harvested. The obtained fraction was dialyzed against PBS solution [10 mmol/L Na2HPO4; 10 mmol/L NaH2PO4; 0.15 mol/L NaCl; […] (pH 7.4)]. Then, tritium-labeled cholesterol (37 MBq) was dissolved in 95% ethanol, gradually added to the above-mentioned HDL3 fraction with stirring and incubated at 37° C. for 18 hr. [By this operation, tritium-labeled cholesterol was esterified by the action of lecithin acyl transferase (LCAT) present on the HDL3 surface and taken up into HDL3 as tritium-labeled cholesteryl ester ([^3H]CE)]. After incubation, KBr was added, the mixture was adjusted to have a specific density d=1.21 g/mL, subjected to density gradient centrifugation (227,000×g, 4° C., 17 hr) and a fraction of specific density […] was harvested. The obtained fraction was dialyzed against the aforementioned PBS solution to give HDL3 incorporating [^3H]CE ([^3H]CE-HDL3, specific density: 1.125<d<1.21, specific activity: 10,000 dpm/μL), which was used as a donor lipoprotein.
(§1) The compound of the present invention was suspended in 0.5% methyl cellulose solution and orally administered once to a healthy hamster with a plastic gavage needle. Blood was taken at 2 or 4 hr after the administration and CETP activity in plasma was measured according to the following method.
The donor lipoprotein obtained above was added to hamster plasma (100 μL) to prepare [^3H]CE-HDL3-containing plasma (ca. 1,000 dpm/μL). The [^3H]CE-HDL3-containing plasma was dispensed to two microtubes by 25 μL each, and one was incubated at 37° C. and the other was incubated at 4° C. for 4 hr each. After ice-cooling, TBS solution (50 μl) containing 1 mol/L magnesium chloride and 2% dextran sulfate was added to each microtube and the mixture was thoroughly stirred. After keeping at […] for 30 min, the mixture was centrifuged (10,000×g, 4° C., 20 min), and the radioactivity in the obtained supernatant (HDL fraction) was measured with a liquid scintillation counter. The radioactivity of the [^3H]CE-HDL3-containing plasma was measured with a liquid scintillation counter, and taken as the total radioactivity. The transfer rate of [^3H]CE was calculated from the following formula using the total radioactivity (Total count), radioactivity by 37° C. incubation (37° C. count) and radioactivity by 4° C. incubation (4° C. count) of the sample of each individual and taken as the CETP activity. CETP activity(transfer ratio (%))={[(4° C. count)−(37° C. count)]/(Total count)}×100
The CETP activity inhibitory ratio of each compound administration group based on the CETP activity of the solvent administration group as 100% was calculated from the following formula and expressed in %.
CETP activity inhibitory ratio (%)=100−[(CETP activity of each compound administration group)/(CETP activity of solvent administration group)×100]

CETP [2] = molecular target: T1, CETP (Homo sapiens, UniProt P11597); test: Inhibitory effect in vitro on CETP activity in total plasma; format: biochemical; conditions: plasma of healthy subject with [3H]CE-HDL3, 37° C., 4 hr; average values
T1 construct: The donor lipoprotein obtained above was added to plasma of healthy subject; from tissue; host or cells: whole plasma of healthy subject
T1 sequence (P11597 18-493): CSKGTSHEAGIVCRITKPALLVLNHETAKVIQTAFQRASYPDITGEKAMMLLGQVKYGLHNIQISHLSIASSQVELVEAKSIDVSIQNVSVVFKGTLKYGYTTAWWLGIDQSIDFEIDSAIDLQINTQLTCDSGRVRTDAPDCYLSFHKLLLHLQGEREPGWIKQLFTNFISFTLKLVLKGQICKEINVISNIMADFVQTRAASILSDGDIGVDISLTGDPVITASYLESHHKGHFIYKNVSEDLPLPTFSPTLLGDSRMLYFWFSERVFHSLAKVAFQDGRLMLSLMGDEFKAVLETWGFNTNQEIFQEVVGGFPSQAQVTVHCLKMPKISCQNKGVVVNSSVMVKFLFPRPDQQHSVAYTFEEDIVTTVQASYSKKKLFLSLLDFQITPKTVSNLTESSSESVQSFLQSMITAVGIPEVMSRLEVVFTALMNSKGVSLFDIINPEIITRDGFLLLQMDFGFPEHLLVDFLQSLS
In short: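 Healthy-donor plasma spiked with [3H]cholesteryl ester-labelled HDL3 (1,000 dpm/μL) was incubated with compound (DMF vehicle) for 4 hr at 37 °C or 4 °C. HDL was separated by MgCl2/dextran sulfate precipitation and supernatant radioactivity counted. IC50 is the concentration giving 50% inhibition of CETP activity.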

HDL cholesterol = test: Blood HDL cholesterol increasing effect in normal hamster; format: in vivo; conditions: single oral dose 3 mg/kg, versus solvent group, average values; for HDL cholesterol increase content (%) 4 (hr later): 4 hr after administration; for HDL cholesterol increase content (%) 8 (hr later): 8 hr after administration
Procedure: as §1
To the plasma (40 μL) obtained from the above-mentioned animal at 4 or 8 hr after the administration was added 15% polyethylene glycol solution (40 μL) and the mixture was thoroughly stirred. After keeping at room temperature for 10 min, the mixture was centrifuged (10,000×g, 4° C., 20 min) and the cholesterol content (HDL cholesterol content) of the obtained supernatant (HDL fraction) was measured. The increase ratio of the HDL cholesterol content of each compound administration group when the HDL cholesterol content of the solvent administration group as 100% was calculated from the following formula and expressed in %. HDL cholesterol increase ratio(%)=[(HDL cholesterol content of each compound administration group/HDL cholesterol content of solvent administration group)×100]−100

[3] = Concomitant use test with simvastatin in rabbits on high cholesterol food; format: in vivo, Japanese white rabbits; conditions: high cholesterol food for 15 days with simvastatin (0.002%) and/or Example 168 (0.2%), control group = 100%
From the text: For the experiment, 10-week-old male Japanese white rabbits (manufactured by KITAYAMA LABES Co., Ltd.) were used. The animal was acclimated on normal food (RC-4, manufactured by Oriental Bio-Service Co.) and fasted for 24 hr and a high cholesterol food (0.25% cholesterol-added RC-4, manufactured by Oriental Bio-Service Co.) was given by 100 g/day per rabbit (preliminary feeding) for 3 days. On the next day of day 3 of preliminary feeding, blood was taken from the auricular artery before feeding, and the animals were grouped by 6 rabbits per group based on the parameters (HDL cholesterol content, total cholesterol content, triglyceride content) of plasma and body weight.
Foods were prepared (manufactured by Oriental Bio-Service Co.) by adding simvastatin (0.002%), compound (0.2%) of Example 168, or simvastatin (0.002%)+compound (0.2%) of Example 168 to a high cholesterol food, and each food was given to the grouped animals by 100 g/day per rabbit for 15 days. At 8 hr after feeding on day 15, the total blood was taken from the carotid artery under anesthesia, HDL cholesterol content, total cholesterol content and ApoA-I content in plasma were measured. The arteriosclerosis index was calculated from [(total cholesterol content-HDL cholesterol content)/HDL cholesterol content]. Furthermore, the HDL3 fraction was separated from plasma by ultracentrifugation and the cholesterol content of the fraction was measured. In Table, arteriosclerotic index, ApoA-1 content and HDL3 cholesterol content are shown based on the value of the control group as 100%.

Row | SMILES | CETP activity (%) 4 (hr later) (CETP [1]) [%] | IC50 (CETP [2]) [nM] | HDL cholesterol increase content (%) 4 (hr later) (HDL cholesterol) [%] | HDL cholesterol increase content (%) 8 (hr later) (HDL cholesterol) [%] | Arteriosclerotic index (%) [3] [%] | HDL3 cholesterol content (%) ([3]; plasma HDL3 fraction) | ApoA-I content (%) ([3]; plasma)
1 | CCN(C[C@H]1CC[C@H](CC(=O)O)CC1)c1ccc(OC(F)(F)F)cc1CN(Cc1cc(C(F)(F)F)cc(C(F)(F)F)c1)c1nnn(C)n1.Cl [Example 115, trans-(4-{[N-(2-{[N′-[3,5-bis(trifluoromethyl)benzyl]-N′-(2-methyl-2H-tetrazol-5-yl)amino]methyl}-4-trifluoromethoxyphenyl)-N-ethylamino]methyl}cyclohexyl)acetic acid hydrochloride] | 62.1 | 90 | 23.3 | 30.7 |  |  | 
2 | CCN(C[C@H]1CC[C@H](CC(=O)O)CC1)c1ccc(C(F)(F)F)cc1CN(Cc1cc(C(F)(F)F)cc(C(F)(F)F)c1)c1nnn(C)n1.Cl [Example 118, trans-(4-{[N-(2-{[N′-[3,5-bis(trifluoromethyl)benzyl]-N′-(2-methyl-2H-tetrazol-5-yl)amino]methyl}-4-trifluoromethylphenyl)-N-ethylamino]methyl}cyclohexyl)acetic acid hydrochloride] | 55.4 | 90 | 21.1 | 31.7 |  |  | 
3 | CCN(C[C@H]1CC[C@H](CC(=O)O)CC1)c1cc(C)c(C(F)(F)F)cc1CN(Cc1cc(C(F)(F)F)cc(C(F)(F)F)c1)c1nnn(C)n1.Cl [Example 142, trans-(4-{[N-(2-{[N′-[3,5-bis(trifluoromethyl)benzyl]-N′-(2-methyl-2H-tetrazol-5-yl)amino]methyl}-5-methyl-4-trifluoromethylphenyl)-N-ethylamino]methyl}cyclohexyl)acetic acid hydrochloride] | 71.6 | 60 | 20.3 | 31.9 |  |  | 
4 | CCN(C[C@H]1CC[C@H](CC(=O)O)CC1)c1cc(C(F)(F)F)c(C)cc1CN(Cc1cc(C(F)(F)F)cc(C(F)(F)F)c1)c1nnn(C)n1.Cl [Example 143, trans-(4-{[N-(2-{[N′-[3,5-bis(trifluoromethyl)benzyl]-N′-(2-methyl-2H-tetrazol-5-yl)amino]methyl}-4-methyl-5-trifluoromethylphenyl)-N-ethylamino]methyl}cyclohexyl)acetic acid hydrochloride] | 42.2 | 100 | 17.0 | 21.3 |  |  | 
5 | CCCN(C[C@H]1CC[C@H](CC(=O)O)CC1)c1ccc(C(F)(F)F)cc1CN(Cc1cc(C(F)(F)F)cc(C(F)(F)F)c1)c1nnn(C)n1.Cl [Example 154, trans-(4-{[N-(2-{[N′-[3,5-bis(trifluoromethyl)benzyl]-N′-(2-methyl-2H-tetrazol-5-yl)amino]methyl}-4-trifluoromethylphenyl)-N-propylamino]methyl}cyclohexyl)acetic acid hydrochloride] | 64.2 |  | 13.3 | 22.4 |  |  | 
6 | CCCN(C[C@H]1CC[C@H](CC(=O)O)CC1)c1cc(C)c(C(F)(F)F)cc1CN(Cc1cc(C(F)(F)F)cc(C(F)(F)F)c1)c1nnn(C)n1.Cl [Example 157, trans-(4-{[N-(2-{[N′-[3,5-bis(trifluoromethyl)benzyl]-N′-(2-methyl-2H-tetrazol-5-yl)amino]methyl}-5-methyl-4-trifluoromethylphenyl)-N-propylamino]methyl}cyclohexyl)acetic acid hydrochloride] | 80.4 |  | 17.9 | 27.1 |  |  | 
7 | CCCN(C[C@H]1CC[C@H](CC(=O)O)CC1)c1ccc(OC(F)(F)F)cc1CN(Cc1cc(C(F)(F)F)cc(C(F)(F)F)c1)c1nnn(C)n1.Cl [Example 158, trans-(4-{[N-(2-{[N′-[3,5-bis(trifluoromethyl)benzyl]-N′-(2-methyl-2H-tetrazol-5-yl)amino]methyl}-4-trifluoromethoxyphenyl)-N-propylamino]methyl}cyclohexyl)acetic acid hydrochloride] | 55.6 |  | 14.8 | 23.7 |  |  | 
8 | CCN(C[C@H]1CC[C@H](CC(=O)O)CC1)c1cc(C)c(C(F)(F)F)cc1CN(Cc1cc(C(F)(F)F)cc(C(F)(F)F)c1)c1nnn(C)n1 [Example 168, trans-(4-{[N-(2-{[N′-[3,5-bis(trifluoromethyl)benzyl]-N′-(2-methyl-2H-tetrazol-5-yl)amino]methyl}-5-methyl-4-trifluoromethylphenyl)-N-ethylamino]methyl}cyclohexyl)acetic acid methanesulfonate] |  |  |  |  | 82 | 141 | 114
